Format in all cases: cell-based
For assay [1], the system named is Prevotella intermedia, Actinomyces israelii, Fusobacterium nucleatum, Staphylococcus aureus subsp aureus, Streptococcus pyogenes, Staphylococcus epidermidis. Kind of assay: Antibacterial activity by liquid dilution method (colony count). The conditions noted are these: liquid dilution method, 1, 10 and 100 μg/ml, 37° C. for 1 hour, number of colonies counted; FIG. 1. The procedure:
In order to evaluate the antibacterial effects of the peptides having the amino acid sequences of SEQ ID NOS: 1 to 4, measurement of the antibacterial activities of the peptides was carried out using a liquid dilution method. Periodontal pathogens, including Prevotella intermedia, Actinomyces israelii, and Fusobacterium nucleatum, were cultured in tryptic soy broth. Staphylococcus aureus subsp aureus and Streptococcus pyogenes were curtured in trypticase soy broth, and Staphylococcus epidermidis was curtured in nutrient liquid medium. After the above bacterial strains had been cultured until the absorbance at 620 nm reached 1, the cells were collected and used in the test. […]
In order to measure the antibacterial activities of the peptides using the liquid dilution method, 1 ml of distilled water was placed in a fine tube, after which 10 μl of the diluted bacterial cell solution was placed in the tube, and then 50 μl of the solution was plated on plate medium and used as a control. Meanwhile, plate medium was treated with each of the antibacterial peptides at concentrations of 1 μg/ml, 10 μg/ml and 100 μg/ml at 37° C. for 1 hours, after which 50 μl of the bacterial cell solution was plated on the plate medium, and the number of colonies produced was counted. […]

Assay [2] concerns Basophilic leukemia RBL-2H3 cells. Kind of assay: Change in release of β-hexosaminidase (degranulation, anti-allergic effect). The conditions noted are these: RBL-2H3 cells sensitised with anti-DNP IgE, challenged with DNP-HAS; concentration of 100 μM; FIG. 2. The procedure: In order to examine the anti-allergic effects of the peptides having the amino acid sequences of SEQ ID NOS: 1 to 4, the changes in release of β-hexosaminidase by the peptides were measured.
Basophilic leukemia RBL-2H3 cells obtained from ATCC (American Type Culture Collection) were cultured in a CO2 incubator (supplied with 5% CO2 and 95% air) with DMEM (Dulbecco's modified Eagle medium) medium containing 10% FBS (heat inactivated fetal bovine serum) and 100 units/ml of antibiotics (penicillin and streptomycin) at 37° C. for 24 hours. Specifically, the cells were cultured in a 96-well plate at a density of 5×10^4 cells/well, and then the supernatant was removed. […] Then, the absorbance at 405 nm was measured and the change in release of β-hexosaminidase was determined. The method of measuring the amount of β-hexosaminidase is known to be sensitive and accurate compared to a method of quantifying histamine, and thus has recently been frequently used in studies on degranulation. For comparison, In addition, the changes in release of β-hexosaminidase by KF and growth factors (hBD3, rhPDGF-BB and rhHB-EGF), which are used as agents for treating allergic diseases, were measured in the same manner as described above and compared with the changes caused by the peptides.

For assay [3], the system named is NF-κB expression in RAW 264.7 cells. Kind of assay: Western blot analysis of NF-κB. Particulars: 1 hour pretreatment, LPS 10 ng/ml, 8 hours, FIG. 3. The procedure: In order to examine association with signals, the expression of the allergic inflammation-associated enzyme NF-κB associated with the NF-κB signal was measured.
(§1) RAW 264.7 cells obtained from ATCC (American Type Culture Collection) were incubated in a CO2 incubator (supplied with 5% CO2 and 95% air) with DMEM (Dulbecco's modified Eagle medium) medium containing 10% FBS and 100 units/ml of antibiotics (penicillin and streptomycin) at 37° C.
The incubated RAW 264.7 cells were treated with each of the peptides having the amino acid sequences of SEQ ID NOS: 1 to 4 for 1 hour, and then treated with LPS (10 ng/ml). After 8 hours, a protein of each of the cytosol and the nucleus was collected and compared with the changes in expression of NF-κB caused by hBD3, rhPDGF-BB and rhHB-EGF. The collected protein was identified by SDS-PAGE and transferred to a nitrocellulose membrane using a blotting kit. The membrane was blotted with the primary antibody NF-κB and exposed to HRP (horseradish peroxidase)-conjugated secondary antibody. Then, the membrane was allowed to react with an ECL western blot detection reagent and exposed to an X-ray film to detect a signal, thereby measuring the expression of the inflammation-associated enzyme NF-κB.

Assay [4] concerns iNOS expression in RAW 264.7 cells. Kind of assay: Western blot analysis of iNOS. Particulars: 1 hour pretreatment, LPS 10 ng/ml, 8 hours, FIG. 4. On the procedure: as §1
(§2) The incubated RAW 264.7 cells were treated with each of the peptides having the amino acid sequences of SEQ ID NOS: 1 to 4 for 1 hour, and then treated with LPS (10 ng/ml). After 8 hours, a protein of each of the cytosol and the nucleus was collected and compared with the changes in expressions of iNOS and COX-2 caused by hBD3, rhPDGF-BB and rhHB-EGF. The collected protein was identified by SDS-PAGE and transferred to a nitrocellulose membrane using a blotting kit. The membrane was blotted with each of the primary antibodies iNOS and COX-2 and exposed to HRP (horseradish peroxidase)-conjugated secondary antibody. Then, the membrane was allowed to react with an ECL western blot detection reagent and exposed to an X-ray film to detect signals, thereby measuring the expressions of the inflammation-associated enzymes iNOS and COX-2.
A general note: A western blot detects proteins with antibodies after separation by electrophoresis.

Assay [5] has as its system COX-2 expression in RAW 264.7 cells. Kind of assay: Western blot analysis of COX-2. The conditions noted are these: 1 hour pretreatment, LPS 10 ng/ml, 8 hours, FIG. 4. The procedure:
as §1, §2

Counter-ions that a name gives are not always drawn. No end group written: not given here.

“hBD3: human beta-defensin-3, comparator (GIINTLQKYYCRVRGGRCAVLSCLPKEEQIGKCSTRGRKCCRRKK; ends and bridges not checked; cysteine pairing not given here; UniProt P81534 23-67, looked up)”: the antibacterial activity result in assay [1] is “lower than those of the peptides”. In addition, in assay [2], the “release of β-hexosaminidase” value was “did not influence the reduction in the release of β-hexosaminidase”. The “LPS-induced expression of NF-κB” value in assay [3] was “not greater than those of the peptides”. Besides, in assay [4], the “LPS-induced expression of iNOS” value is “no inhibitory effect”. Further, the “LPS-induced expression of COX-2” value in assay [5] is given as “no inhibitory effect”.
On to `CN1CCC(=C2c3ccccc3CC(=O)c3sccc32)CC1` [KF, ketotifen fumarate, reference compound], for which the “LPS-induced expression of NF-κB” value in assay [3] is “smaller than the inhibitory effects of the peptides”. The “LPS-induced expression of iNOS” value in assay [4] is “smaller than the inhibitory effects of the peptides”. Moreover, in assay [5], the “LPS-induced expression of COX-2” value is on record as “smaller than the inhibitory effects of the peptides”.

B1: rhHB-EGF: recombinant human HB-EGF, comparator growth factor (protein, UniProt Q99075 63-148, looked up)
Heparin-binding EGF-like …: DLQEADLDLLRVTLSSKPQALATPNKEEHGKRKKKGKGLGKKRDPCLRKYKDFCIHGECKYVKELRAPSCICHPGYHGERCHGLSL
For the molecule B1, the antibacterial activity result in assay [1] is listed as “lower than those of the peptides”. The “release of β-hexosaminidase” value in assay [2] is reported as “did not influence the reduction in the release of β-hexosaminidase”. Further, the “LPS-induced expression of NF-κB” value in assay [3] is “not greater than those of the peptides”. The “LPS-induced expression of iNOS” value in assay [4] is recorded as “no inhibitory effect”. In addition, the “LPS-induced expression of COX-2” value in assay [5] is “no inhibitory effect”.
